This note sets out measurements from patent US9408853B2, “Iridium/rhodium anti-cancer compounds” (University of Warwick, priority 2010, dated 2016).

A word on the IC50: it is the midpoint of a concentration-inhibition curve.

The first data set has as its system human ovarian A2780 cancer cells. Put plainly: Cancer cell cytotoxicity, SRB assay. Format: cell-based.
Details: not given
On the procedure: Cancer Cell Cytotoxicity. After plating, human ovarian A2780 cancer cells were treated with Ir^III complexes on day 3 at concentrations ranging from 0.5 μM to 100 μM. Solutions of the Ir^III complexes were made up in 0.125% DMSO to assist dissolution. Stock solutions of the IrIII complexes were firstly prepared in DMSO to assist dissolution, and then diluted into 0.9% saline and medium. After plating 5000 A2780 cells per well on day 1, IrIII complexes were added to the cancer cells on day 3 at concentrations ranging from 0.05 μM to 100 μM. Cells were exposed to the complexes for 24 h, washed, supplied with fresh medium, allowed to grow for three doubling times (72 h), and then the protein content measured (proportional to cell survival) using the sulforhodamine B (SRB) assay.^15 […]. The standard errors are based on two independent experiments of three replicates each.
A general note: In SRB staining, fixed cells bind dye roughly in proportion to their protein.
`Cc1c(C)c(C)[c-](C)c1C.[Cl-].[Ir+3].[c-]1ccccc1C=Nc1ccccc1` [ZL51, [(η^5-C5Me5)Ir{C6H4-2-C(H)═NPh-κC,N}Cl]]: the “cytotoxic activity towards A2780 (in words)” value is given as “moderate or high activity”.
In the case of `Cc1c(C)c(C)[c-](C)c1C.[Cl-].[Ir+3].[O-]c1cccnc1-c1ncccc1O` [ZL44, [(η^5-C5Me5)Ir(bipy(OH)O)Cl]], the “cytotoxic activity towards A2780 (in words)” value was “moderate or high activity”.

Still in this data set, the particulars now being: 24 h exposure, 72 h recovery, SRB; read-out: A2780 IC50.
Regarding `Cc1c(C)c(-c2ccccc2)[c-](C)c1C.NCCN.[Cl-].[Ir+3].c1ccc([B-](c2ccccc2)(c2ccccc2)c2ccccc2)cc1` [ZL31, [(η^5-C5Me4C6H5)IrCl(H2NCH2CH2NH2—N,N)]BPh4], the IC50 stood at 17 µM.
`Cc1c(C)c(C)[c-](C)c1C.[Cl-].[Ir+3].[c-]1ccccc1C=Nc1ccccc1` [ZL51, [(η^5-C5Me5)Ir{C6H4-2-C(H)═NPh-κC,N}Cl]]: the IC50 was 5 µM.
In the case of `Cc1c(C)c(C)[c-](-c2ccccc2)c1C.Cc1ccnc(-c2cc(C)ccn2)c1.F[P-](F)(F)(F)(F)F.[Cl-].[Ir+3]` [ZL57, [(η^5-C5Me4C6H5)Ir(bipy(Me)2)Cl]PF6], the IC50 was found to be 9.2 µM.
As for `Cc1c(C)c(C)[c-](-c2ccc(-c3ccccc3)cc2)c1C.[Cl-].[Ir+3].[O-]c1cccnc1-c1ncccc1O` [ZL46, {(η^5-C5Me4C6H4C6H5)Ir[bipy(OH)(O)]Cl}], the concentration for half-maximal inhibition (IC50) came to 2.8 µM.
On the same count and under the same terms, next, `CC(=O)C=C(C)[O-].Cc1c(C)c(C)[c-](C)c1C.[Cl-].[Ir+3]` [ZL02, [(η^5-C5Me5)Ir(acac)Cl]]: greater than 100 µM.
In the case of `Cc1c(C)c(C)[c-](-c2ccccc2)c1C.F[P-](F)(F)(F)(F)F.Oc1cccnc1-c1ncccc1O.[Cl-].[Ir+3]` [ZL45, [(η^5-C5Me4C6H5)Ir(bipy(OH)2)Cl]PF6], the IC50 was determined as 7.2 µM.
`Cc1c(C)c(C)[c-](C)c1C.[Cl-].[Ir+3].[O-]c1cccnc1-c1ncccc1O` [ZL44, [(η^5-C5Me5)Ir(bipy(OH)O)Cl]]: the IC50 turned out to be 17.2 µM.
Take `Cc1c(C)c(C)[c-](C)c1C.Cc1ccnc(-c2cc(C)ccn2)c1.F[P-](F)(F)(F)(F)F.[Cl-].[Ir+3]` [ZL55, [(η^5-C5Me5)Ir(bipy(Me)2)Cl]PF6]: the IC50 is greater than 100 µM.
In the case of `Cc1c(C)c(C)[c-](-c2ccc(-c3ccccc3)cc2)c1C.Cc1ccnc(-c2cc(C)ccn2)c1.F[P-](F)(F)(F)(F)F.[Cl-].[Ir+3]` [ZL59, [(η^5-C5Me4C6H4C6H5)Ir(bipy(Me)2)Cl]PF6], the IC50 was determined as 0.51 µM.
Consider `Cc1c(C)c(-c2ccc(-c3ccccc3)cc2)[c-](C)c1C.F[P-](F)(F)(F)(F)F.[Ir+3].[c-]1ccccc1-c1ccccn1.c1ccncc1` (centres unmarked) [ZL105, [(η^5-C5Me4C6H4C6H5)Ir(2-phpy)(py)]PF6], for which the 50% inhibitory concentration (IC50) worked out at 0.12 ± 0.02 µM.
For the compound `Cc1c(C)c(-c2ccc(-c3ccccc3)cc2)[c-](C)c1C.Fc1c[c-]c(-c2ccccn2)c(F)c1.[Cl-].[Ir+3]` (centres unmarked) [ZL103, [(η^5-C5Me4C6H4C6H5)Ir(2-dfphpy)Cl]], the concentration for half-maximal inhibition (IC50) worked out at 0.67 ± 0.11 µM.

Still in this data set, the particulars now being: screening test; read-out: A2780 IC50, data from screening test.
Take `CN(C)c1ccc(N=Nc2ccccn2)cc1.Cc1c(C)c(C)[c-](C)c1C.F[P-](F)(F)(F)(F)F.[Cl-].[Ir+3]` [ZL64, [(η^5-C5Me5)Ir(azpy-NMe2)Cl]PF6]: the IC50 was less than 30 µM.
For `CCC[c-]1c(C)c(C)c(C)c1C.[Cl-].[Ir+3].[c-]1ccccc1-c1ccccn1` [ZL100, [(η^5-C5Me4C3H7)Ir(2-phpy)Cl]], the IC50 was less than 10 µM.
Still for that read-out and setting: next, `Cc1c(C)c(C)[c-](-c2ccccc2)c1C.[Cl-].[Cl][Ir+2].c1ccc2nc3c4cccnc4c4ncccc4c3nc2c1` [ZL93, [(η^5-C5Me4C6H5)Ir(dppz)Cl]Cl]: less than 5 µM; `Cc1c(C)c(C)[c-](-c2ccccc2)c1C.F[P-](F)(F)(F)(F)F.[Cl][Ir+2]1[N]2C=CC=c3c2c2c(c4nccnc34)=CC=C[N]21` [ZL89, [(η^5-C5Me4C6H5)Ir(dpq)Cl]PF6]: less than 5 µM.
Turning to `Cc1c(C)c(C)[c-](-c2ccc(-c3ccccc3)cc2)c1C.[Cl-].[Cl][Ir+2].c1cnc2c(c1)c1nccnc1c1cccnc12` [ZL94, [(η^5-C6Me4C6H4C6H5)Ir(dpq)Cl]Cl], the concentration for half-maximal inhibition (IC50) is less than 5 µM.
In the case of `CN(C)c1ccc(N=Nc2ccccn2)cc1.Cc1c(C)c(-c2ccccc2)[c-](C)c1C.F[P-](F)(F)(F)(F)F.[Cl-].[Ir+3]` [ZL109, [(η^5-C5Me4C6H5)Ir(azpy-NMe2)Cl]PF6], the IC50 was less than 10 µM.
As to `Cc1c(C)c(C)[c-](-c2ccc(-c3ccccc3)cc2)c1C.[Cl-].[Cl][Ir+2].c1ccc2nc3c4cccnc4c4ncccc4c3nc2c1` [ZL95, [(η^5-C5Me4C6H4C6H5Pr(dppz)Cl]Cl], the IC50 is less than 5 µM.
